Test results as given in patent US8440639B2, “Combination compositions for reducing intraocular pressure” (Inotek Pharmaceuticals Corporation, priority 2010, dated 2013).
pKi: −log10 of the molar value. Where a name gives a salt, the structure may show the parent alone.

Biological target: T1, A1 receptor (Homo sapiens, UniProt P30542)
T1 sequence (P30542 1-326): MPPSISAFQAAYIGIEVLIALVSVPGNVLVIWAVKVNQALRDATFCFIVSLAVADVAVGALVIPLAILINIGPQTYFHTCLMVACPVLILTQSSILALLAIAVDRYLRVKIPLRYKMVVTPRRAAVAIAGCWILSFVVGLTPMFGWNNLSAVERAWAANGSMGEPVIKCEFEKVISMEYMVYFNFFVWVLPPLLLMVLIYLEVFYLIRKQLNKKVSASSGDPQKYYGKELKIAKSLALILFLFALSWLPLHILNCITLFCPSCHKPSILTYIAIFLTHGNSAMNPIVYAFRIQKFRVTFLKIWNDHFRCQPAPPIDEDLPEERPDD
Assay: Adenosine A1 receptor affinity (Ki potency)
Format: binding
Text: As used herein, the term “A1 agonist” refers to an A1 agonist that has an affinity to the A1 receptor while simultaneously having a lower affinity for the A2 and A3 adenosine receptors.

SMILES	pKi
O=S(=O)(O)OC[C@H]1O[C@@H](n2cnc3c(NC4CCCCC4)nc(Cl)nc32)[C@H](O)[C@@H]1O [Compound G, sodium((2R,3S,4R,5R)-5-(2-chloro-6-(cyclohexylamino)-9H-purin-9-yl)-3,4-dihydroxytetrahydrofuran-2-yl)methyl sulfate]	8.87
O=S(=O)(O)OC[C@H]1O[C@@H](n2cnc3c(NC4CCCC4)ncnc32)[C@H](O)[C@@H]1O [Compound C, sodium((2R,3S,4R,5R)-5-(6-(cyclopentylamino)-9H-purin-9-yl)-3,4-dihydroxytetrahydrofuran-2-yl)methyl sulfate]	8.39
O=[N+]([O-])OC[C@H]1O[C@@H](n2cnc3c(NC4CCCCC4)ncnc32)[C@H](O)[C@@H]1O [Compound E, ((2R,3S,4R,5R)-5-(6-(cyclohexylamino)-9H-purin-9-yl)-3,4-dihydroxytetrahydrofuran-2-yl)methyl nitrate]	8.88

Results, then the molecule that gave them:

pKi	SMILES
7.97	O=[N+]([O-])OC[C@H]1O[C@@H](n2cnc3c(NC4CCOC4)ncnc32)[C@H](O)[C@@H]1O (stereo partly drawn) [Compound D, ((2R,3S,4R,5R)-3,4-dihydroxy-5-(6-(tetrahydrofuran-3-ylamino)-9H-purin-9-yl)tetrahydrofuran-2-yl)methyl nitrate]
8.83	O=[N+]([O-])OC[C@H]1O[C@@H](n2cnc3c(NC4CC5CCC4C5)ncnc32)[C@H](O)[C@@H]1O (stereo partly drawn) [Compound F, ((2R,3S,4R,5R)-5-(6-(bicycle-[2.2.1]-heptan-2-ylamino)-9H-purin-9-yl)-3,4-dihydroxytetrahydrofuran-2-yl)methyl nitrate]
